These results are taken from patent publication US20240317755A1, “HETEROCYCLIC COMPOUND, AND INTERMEDIATE THEREOF, PREPARATION METHOD THEREFOR AND USE THEREOF” (WUHAN LL SCIENCE AND TECHNOLOGY DEVELOPMENT CO., LTD., priority 2021, published 2024).

Data set [1] in a line: Liver microsome half-life assay, human. The conditions noted are these: for half-life: human, liver microsomes, 1 mg/mL liver microsomal protein, 37° C., read-out: Liver microsome T½ (min) Human; for metabolic stability in liver microsomes: compared with compounds C001 and C002, statement on Table 12, species not specified. It is filed as in vitro ADME. On the procedure: (§1) The in vitro metabolic stability of the compounds of the present disclosure was determined using warm incubation method of liver microsomes in various species. A proper amount of test compound was added to the liver microsomal reaction system (1 mg/mL liver microsomal protein, 25 U/mL glucose-6-phosphate dehydrogenase, 1 mM NADP, 6 mM D-glucose 6-phosphate, 5 mM MgCl2), and the reaction was started by warm incubation in a water bath at 37° C., then 100 μL of the reaction mixture at each time point was added to a centrifuge tube containing 400 μL of internal standard working solution precooled at 0° C. (containing a solution of 200 ng/mL dexamethasone, diclofenac, tolbutamide, and labetalol in acetonitrile), then the reaction was terminated, centrifuged at 4° C. and 10,000 g for 10 min, and the supernatant was taken into LC-MS for analysis and detection to obtain in vitro metabolic half-lives of the test compounds in liver microsomes of various species.

Another data set concerns the target TRPC5 channel (Homo sapiens (Human), UniProt Q9UL62). Briefly: TRPC5 calcium flux assay (Fluo-4, FLIPR) in TRPC5-HEK 293 cells. Type of data set: cell-based. The conditions noted are these: for IC50: 0.3 nM Englerin A. The procedure: TRPC5 is a type of non-selective cation channel with permeability to calcium ions. […] Fluo-4 AM fluorescence dye was used to indirectly reflect the effect of the compound on TRPC5 channel by detecting intracellular Ca^2+ in TRPC5-HEK 293 cells.
• Revival solution: 100% high glucose DMEM • Selection medium: high glucose DMEM+10% FBS+1% P/S+1% HEPES+Blasticidin (5 μg/mL)+Hygromycine (50 μg/mL) • Induction medium: high glucose DMEM+10% FBS+1% P/S+1% HEPES+Doxycycline (1 μg/mL)
14 hours before the real-time fluorescence experiment, cells were washed with PBS and digested with trypsin-EDTA. Cells were diluted to 200,000 cells/mL with induction medium and seeded onto a 96-well black wall bottom transparent plate coated with poly-D-lysine (PDL) (stock solution of 10 mg/mL, final concentration of 10 μg/mL) at 100 μL/well, i.e., 20,000 cells/well.
500 mL of external solution for detecting TRPC5 calcium signals: 4.0908 g of NaCl, 0.1864 g of KCl, 0.111 g of CaCl2, 0.0476 g of MgCl2, 0.9 g of glucose, 1.1915 g of HEPES (2-[4-(2-hydroxyethyl)piperazin-1-yl]ethanesulfonic acid).
Calcium fluorescent dye: an external solution for detecting TRPC5 calcium signals containing Fluo-4 with a final concentration of 4 μM (containing 0.5% BSA)
Positive inhibitor concentration: 100 nM
The dose-effect diagram was used to calculate AUC (area under the curve of the curve formed by the calcium flux signal), and the data and the log of the compound concentration were collected. The IC50 value was calculated using log[Inhibitor] vs. response Variable slope.
TRPC5 is a type of non-selective cation channel with permeability to calcium ions. […] Fluo-4 AM fluorescence dye was used to indirectly reflect the effect of the compound on TRPC5 channel by detecting intracellular […] in TRPC5-HEK 293 cells.
1. Cell culture 1.1 Revival of TRPC5-HEK 293 cells • Revival solution: 100% high glucose DMEM • Selection medium: high glucose DMEM+10% FBS+1% P/S+1% HEPES+Blasticidin (5 μg/mL)+Hygromycine (50 μg/mL) • Induction medium: high glucose DMEM+10% FBS+1% P/S+1% HEPES+Doxycycline (1 μg/mL)
14 hours before the real-time fluorescence experiment, cells were washed with PBS and digested with trypsin-EDTA (TE). Cells were diluted to 200,000 cells/mL with induction medium and seeded onto a 96-well black wall bottom transparent plate coated with poly-D-lysine (PDL) (stock solution of 10 mg/mL, final concentration of 10 μg/mL) at 100 μL/well, i.e., 20,000 cells/well.

Data set [2] is described as follows: Liver microsome half-life assay, mouse. It is filed as in vitro ADME. As to conditions: liver microsomes, 1 mg/mL liver microsomal protein, 37° C., read-out: Liver microsome T½ (min) Mouse. The procedure:
as §1

Data set [3] is described as follows: Liver microsome half-life assay, rat. Type of data set: in vitro ADME. The conditions noted are these: liver microsomes, 1 mg/mL liver microsomal protein, 37° C., read-out: Liver microsome T½ (min) Rat. On the procedure: as §1
Data set [4] is described as follows: Pharmacokinetic study in mice in vivo (gavage and tail vein injection). As to conditions: mouse, plasma; for AUC(0-t) / Cmax: dose 1 mg/kg; for bioavailability: 1 mg/kg, p.o. vs i.v. From the text:
[…] Mouse plasma was collected at a specific time point after administration, and the concentration of the compound in plasma was detected by LC-MS/MS (AB SCIEX Qtrap4500). PK parameters of each compound (WinNonlin V5.2, Pharsight) were statistically analyzed and calculated to reflect the pharmacokinetic properties of the compounds of the present disclosure in mice in vivo.

The nature of data set [5]: Liver microsome half-life assay, monkey. It is filed as in vitro ADME. As to conditions: liver microsomes, 1 mg/mL liver microsomal protein, 37° C., read-out: Liver microsome T½ (min) Monkey. The procedure:
as §1

Data set [6] in a line: Liver microsome half-life assay, beagle dog. As to conditions: liver microsomes, 1 mg/mL liver microsomal protein, 37° C., read-out: Liver microsome T½ (min) Beagle dog. It is filed as in vitro ADME. On the procedure:
as §1

Where [7] appears, read: Table 11, read-out: TRPC5 inhibitory activity, IC50.

Where two headings read alike, the source gives them in different places.

TRPC5 channel, sequence (Q9UL62 whole entry): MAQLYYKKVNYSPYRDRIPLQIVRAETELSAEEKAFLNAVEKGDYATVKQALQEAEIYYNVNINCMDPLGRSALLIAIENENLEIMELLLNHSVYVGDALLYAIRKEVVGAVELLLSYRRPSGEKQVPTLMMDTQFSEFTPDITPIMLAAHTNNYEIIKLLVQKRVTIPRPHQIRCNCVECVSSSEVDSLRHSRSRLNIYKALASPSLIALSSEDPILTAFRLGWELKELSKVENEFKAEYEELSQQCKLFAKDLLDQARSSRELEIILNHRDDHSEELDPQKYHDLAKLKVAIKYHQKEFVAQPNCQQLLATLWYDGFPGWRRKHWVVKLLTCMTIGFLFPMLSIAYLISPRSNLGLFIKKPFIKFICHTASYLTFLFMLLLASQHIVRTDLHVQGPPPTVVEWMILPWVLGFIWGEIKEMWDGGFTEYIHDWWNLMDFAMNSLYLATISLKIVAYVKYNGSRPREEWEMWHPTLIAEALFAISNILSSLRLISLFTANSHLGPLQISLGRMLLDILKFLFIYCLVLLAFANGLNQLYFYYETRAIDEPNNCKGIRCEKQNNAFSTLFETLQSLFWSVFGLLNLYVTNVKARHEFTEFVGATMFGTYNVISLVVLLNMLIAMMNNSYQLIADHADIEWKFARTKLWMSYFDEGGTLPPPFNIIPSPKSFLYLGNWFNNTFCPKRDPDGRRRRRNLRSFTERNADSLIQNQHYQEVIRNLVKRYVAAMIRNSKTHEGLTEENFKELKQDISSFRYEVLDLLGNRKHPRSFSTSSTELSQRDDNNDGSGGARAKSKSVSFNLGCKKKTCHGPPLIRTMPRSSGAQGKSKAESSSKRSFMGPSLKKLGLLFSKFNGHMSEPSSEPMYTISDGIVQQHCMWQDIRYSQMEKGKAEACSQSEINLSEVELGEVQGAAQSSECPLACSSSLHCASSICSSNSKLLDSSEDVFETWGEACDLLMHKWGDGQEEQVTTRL

With `O=c1[nH]ncc(N2CCn3c(Cc4cc(F)ccc4C(F)(F)F)cnc3C2)c1Cl` [Compound L013, 4-chloro-5-(3-(5-fluoro-2-(trifluoromethyl)benzyl)-5,6-dihydroimidazo[1,2-a]pyrazin-7(8H)-yl)pyridazin-3(2H)-one], the half-life is 148 min in data set [1] and 131 min in data set [2]. The IC50 at TRPC5 channel (setting [7]) is 0.0146 µM.

As for `N#Cc1ccc(C(=O)c2cnc3n2CCN(c2cn[nH]c(=O)c2Cl)C3)c(C(F)(F)F)c1` [Compound L019, 4-(7-(5-chloro-6-oxo-1,6-dihydropyridazin-4-yl)-5,6,7,8-tetrahydroimidazo[1,2-a]pyrazine-3-carbonyl)-3-(trifluoromethyl)benzonitrile], the IC50 on TRPC5 channel (setting [7]) amounted to 0.024 µM.

With `O=c1[nH]ncc(N2CCn3c(Cc4ccccc4C(F)(F)F)cnc3C2)c1Cl` [Compound L001, 4-chloro-5-(3-(2-(trifluoromethyl)benzyl)-5,6-dihydroimidazo[1,2-a]pyrazin-7(8H)-yl)pyridazin-3(2H)-one], the “metabolic stability in liver microsomes” value in data set [1] is recorded as “significantly improved”. The half-life in data set [1] was 173 min; in data set [2] it was 154 min; in data set [3], 20 min. Also, at TRPC5 channel (setting [7]), the IC50 stood at 0.0108 µM. Besides, the AUC(0-t) stood at 225 ng·h/mL in data set [4] (iv) and 84.3 ng·h/mL in data set [4] (po). The results for the Cmax in data set [4] (iv) and in data set [4] (po) were 225 ng/mL and 84.3 ng/mL, respectively. The bioavailability in data set [4] (po) stood at 80.6%.

`N#Cc1ccc(Cc2cnc3n2CCN(c2cn[nH]c(=O)c2Cl)C3)c(C(F)(F)F)c1` [Compound L014, 4-((7-(5-chloro-6-oxo-1,6-dihydropyridazin-4-yl)-5,6,7,8-tetrahydroimidazo[1,2-a]pyrazin-3-yl)methyl)-3-(trifluoromethyl)benzonitrile]: the half-life in data set [1] came out at 7590 min. Also, the IC50 at TRPC5 channel (setting [7]) was 0.0182 µM. Besides, the half-life in data set [2] came to 167 min. Also, in data set [4] (iv), the AUC(0-t) turned out to be 663 ng·h/mL and the peak concentration (Cmax) is 762 ng/mL. Further, in data set [4] (po), the bioavailability came out at 161%, the AUC(0-t) turned out to be 1070 ng·h/mL and the concentration peaked (Cmax) at 301 ng/mL.

In the case of `O=c1[nH]ncc(N2CCn3c(Cc4ccc(F)cc4Cl)cnc3C2)c1Cl` [Compound L009], the 50% inhibitory concentration (IC50) at TRPC5 channel (setting [7]) is 0.0394 µM.

Regarding `O=c1[nH]ncc(N2CCn3c(Cc4ccc(F)cc4C(F)F)cnc3C2)c1Cl` [Compound L007], the IC50 on TRPC5 channel (setting [7]) came out at 0.00737 µM.

With `O=c1[nH]ncc(N2CCc3c(ncn3Cc3ccc(F)cc3C(F)(F)F)C2)c1Cl` [Compound C002, reference compound], the half-life amounted to 90 min in data set [1]; 15 min in data set [5]; 102 min in data set [6]; 115 min in data set [2]; 34 min in data set [3].

Consider `O=c1[nH]ncc(N2CCn3c(Cc4ccc(F)cc4C(F)(F)F)cnc3C2)c1Cl` [Compound L002, 4-chloro-5-(3-(4-fluoro-2-(trifluoromethyl)benzyl)-5,6-dihydroimidazo[1,2-a]pyrazin-7(8H)-yl)pyridazin-3(2H)-one], for which, in data set [1], the “metabolic stability in liver microsomes” value was “significantly improved” and the half-life amounted to 262 min. Further, the IC50 on TRPC5 channel (setting [7]) was determined as 0.00652 µM. In data set [2], the half-life is 188 min. In data set [4] (iv), this compound yielded an AUC(0-t) of 1450 ng·h/mL and a Cmax of 833 ng/mL. In data set [4] (po), the bioavailability stood at 43.2%, the AUC(0-t) is 625 ng·h/mL and the Cmax came out at 248 ng/mL.

For the compound `O=C(c1ccc(F)cc1C(F)(F)F)c1cnc2n1CCN(c1cnn(COP(=O)(O)O)c(=O)c1Cl)C2` [Compound 1, (5-chloro-4-(3-(4-fluoro-2-(trifluoromethyl)benzoyl)-5,6-dihydroimidazo[1,2-a]pyrazin-7(8H)-yl)-6-oxopyridazin-1(6H)-yl)methyl dihydrogen phosphate], the “inhibitory activity against TRPC5 channels” value on TRPC5 channel is recorded as “no inhibitory activity”. The IC50 at TRPC5 channel (Table 1, read-out: TRPC5 inhibitory activity, IC50) is over 10 µM.

Take `O=c1[nH]ncc(N2CCc3c(ncn3Cc3ccccc3C(F)(F)F)C2)c1Cl` [Compound C001, reference compound]: the half-life in data set [1] stood at 54 min; in data set [5], 38 min; in data set [6] it was 15 min; in data set [2] it was 60 min; in data set [3], 5 min.
